The results in this text go back to ChEMBL document CHEMBL5137019, “Sattahipmycin, a Hexacyclic Xanthone Produced by a Marine-Derived Streptomyces” (J Nat Prod, 2022).

Series [1] concerns Bacillus subtilis. In words: Antibacterial activity against Bacillus subtilis KB211 at 1 to 30 ug paper disc by paper disc method. In kind it is functional, organism-based. Conditions: dose 1-30 µg.
Series [2] has as its system Escherichia coli. In words: Bactericidal activity against Escherichia coli NBRC 3972. In kind it is functional.
The test system of series [3] is Staphylococcus aureus. In words: Antibacterial activity against Staphylococcus aureus KB210 at 1 to 30 ug per disc by paper disc method. The series is classed as functional, organism-based. To be noted: dose 1-30 µg.
Series [4] deals with HT-29. In words: Cytotoxicity against human HT-29 cells assessed as cell growth inhibition and measured after 2 days by WST-8 assay. In kind it is functional, cell-based. Conditions: HT-29, 48 h. For orientation: Tetrazolium assays rely on reduction of a dye to a coloured formazan, in cell work by metabolically active cells.
Series [5] is described as follows: Selectivity index, ratio of IC50 for cytotoxicity against human MRC5 cells to IC50 for antimalarial activity against chloroquine-resistant Plasmodium falciparum K1. The series is classed as toxicity, cell-based. Conditions: MRC5 cells versus Plasmodium falciparum K1, read-out: Ratio IC50.
Series [6] relates to Xanthomonas campestris pv. oryzae. Description: Antibacterial activity against Xanthomonas campestris pv. oryzae KB88 at 1 to 30 ug per disc by paper disc method. The series is classed as functional, organism-based. Conditions: dose 1-30 µg.
Series [7] relates to Plasmodium falciparum. In words: Antimalarial activity against chloroquine-resistant Plasmodium falciparum K1 assessed as parasite growth inhibition and measured after 72 hrs by ELISA. In kind it is functional, organism-based. To be noted: K1, 72 h. A general note: An ELISA detects its analyte on a solid surface through an enzyme-linked reagent.
The subject of series [8] is Escherichia coli. In words: Antibiofilm activity against Escherichia coli NBRC 3972 assessed as inhibition of biofilm formation at 15 to 60 ug/ml incubated overnight by crystal violet staining based ELISA. In kind it is functional. Conditions: dose 15-60 µg/ml; at 15 to 60 µg/mL.
For series [9], the system named is NCI-H1299. In words: Cytotoxicity against human NCI-H1299 cells assessed as cell growth inhibition and measured after 2 days by WST-8 assay. In kind it is functional, cell-based. To be noted: NCI-H1299, 48 h.
Series [10] concerns Xanthomonas campestris pv. oryzae. Description: Antibacterial activity against Xanthomonas campestris pv. oryzae KB88 assessed as bacterial growth inhibition by paper disc method. The series is classed as functional.
Series [11] relates to Plasmodium falciparum. In words: Antimalarial activity against chloroquine-sensitive Plasmodium falciparum FCR3 assessed as parasite growth inhibition and measured after 72 hrs by ELISA. The series is classed as functional, organism-based. To be noted: FCR3, 72 h.
Series [12] can be described thus: Cytotoxicity against human MRC5 cells assessed as cell growth inhibition and measured after 2 days by WST-8 assay. The series is classed as toxicity, cell-based.
Series [13] has as its system A549. Description: Cytotoxicity against human A549 cells assessed as cell growth inhibition and measured after 2 days by WST-8 assay. Conditions: A549, 48 h. The series is classed as functional, cell-based.
In series [14] the test system is HeLa S3. In words: Cytotoxicity against human HeLa S3 cells assessed as cell growth inhibition and measured after 2 days by WST-8 assay. In kind it is functional, cell-based. Conditions: HeLa S3, 48 h.
Series [15] deals with PANC-1. Description: Cytotoxicity against human PANC-1 cells assessed as cell growth inhibition and measured after 2 days by WST-8 assay. The series is classed as functional, cell-based. To be noted: PANC-1, 48 h.
For series [16], the system named is Escherichia coli. In words: Antibacterial activity against Escherichia coli NBRC 3972 assessed as bacterial growth inhibition by paper disc method. In kind it is functional.
Series [17] can be described thus: Selectivity index, ratio of IC50 for cytotoxicity against human MRC5 cells to IC50 for antimalarial activity against […] Plasmodium falciparum FCR3. In kind it is toxicity, cell-based. To be noted: MRC5 cells versus Plasmodium falciparum FCR3, read-out: Ratio IC50.
In series [18] the test system is Kocuria rhizophila. Description: Antibacterial activity against Kocuria rhizophila KB212 assessed as bacterial growth inhibition by paper disc method. In kind it is functional.
Series [19] has as its system Micrococcus luteus. Description: Antibacterial activity against Micrococcus luteus KB212 at 1 to 30 ug per disc by paper disc method. The series is classed as functional, organism-based. Conditions: dose 1-30 µg.
The subject of series [20] is Bacillus subtilis. In words: Antibacterial activity against Bacillus subtilis KB211 assessed as bacterial growth inhibition by paper disc method. The series is classed as functional.
In series [21] the test system is Staphylococcus aureus. In words: Antibacterial activity against Staphylococcus aureus KB210 assessed as bacterial growth inhibition by paper disc method. In kind it is functional.

The term pIC50 denotes the negative decadic logarithm of the IC50, by convention in mol/L. By MIC is commonly meant the lowest concentration that inhibits growth of the organism. The term IC50 denotes the concentration needed to halve the response being measured.

pIC50: −log10 of the molar value. ≈ marks a conversion by molar mass, not a printed value. Calls of active or inactive are those of the source. The rule behind the calls is not given here.

As to `COc1c2c(c(O)c3c(=O)c4cccc(O)c4oc13)-c1c(cc3cc(C)[nH]c(=O)c3c1O)C[C@H]2O`, the outcome in series [1], in series [3], in [6] and in series [19] was Active. The same compound showed an Activity in [2] greater than 250 µg/mL. In addition, the pIC50 is 5.72 in series [4]; 6.57 in [7]; 4.97 in [9]; 6.70 in [11]; 5.73 in series [13]; 5.66 in series [14]. For the same compound, the pIC50 in [15] is 4.89. The selectivity ratio in series [5] was 0.62; in [17], 0.85. Further, in series [8], the “inhibition (INH)” value is on record as 50%. The MIC in series [10] is 0.25 µg/mL (≈ 0.528 µM); in series [16] it was greater than 250 µg/mL; in series [18], 0.25 µg/mL (≈ 0.528 µM); in [20], 0.25 µg/mL (≈ 0.528 µM); in [21], 0.25 µg/mL (≈ 0.528 µM). For the same compound, the half-inhibitory concentration (IC50) at 2 days in [12] came out at 170 nM.
`C[C@@H]1CC[C@H]2[C@@H](C)C(=O)O[C@@H]3O[C@@]4(C)CC[C@@H]1[C@]32OO4` [ARTEMISININ]: the values for the selectivity ratio in [5] and in series [17] were 1580 and 2030, respectively. The pIC50 in series [7] was 7.52; in series [11], 7.70. For the same compound, in series [12], the IC50 at 2 days was 50300 nM.
Consider `CCN(CC)CCCC(C)Nc1ccnc2cc(Cl)ccc12` (configuration not stated) [CHLOROQUINE], for which the IC50 at 2 days in [12] is 58200 nM.
